# Reference: patent US20030138946A1
# Tests used:
# 2C+ T-cells [1] = assay: Rosetting of 2C+ T-cells with L^d-bearing supports plus peptide; format: cell-based, mouse; conditions: peptide 0.02 mM
# Method: Rosetting experiments verified that the attached MHC molecules interacted functionally with T-cells. Drosophila S2 cells expressing L^d, L^d-coated SRBC were incubated with QL9 peptide (0.02 mM) or an irrelevant peptide (MCMV, 0.02 mM) for 30 minutes on ice; 2C+ T-cells were then added, the proportion being 10 2C+ T-cells for 1 Drosophila S2 cell, or 10 SRBC for 1 2C+ T-cell; the mixture was pelleted and kept on ice for at least 30 min. Cells were then carefully resuspended and rosettes were counted, a rosette being a Drosophila S2 cell bound to at least 3 2C+ T-cells, or a 2C+ T-cell bound to at least 3 SRBC. […] Typically, 30-40% of the lymphocytes were included in rosettes when QL9 peptide was added.
# Rosetting experiments verified that the attached MHC molecules on latex beads interacted functionally with T-cells. Drosophila S2 cells expressing recombinant L^d and L^d-coated latex beads were incubated with QL9 peptide (0.02 mM) or an irrelevant peptide (MCMV, 0.02 mM) for 30 minutes on ice; 2C+ T-cells were then added, the proportion being 10 2C+ T-cells for 1 Drosophila S2 cell, or […]; the mixture was pelleted and kept on ice for at least 30 min. Cells were then carefully resuspended and rosettes were counted, a rosette being a Drosophila S2 cell bound to at least 3 2C+ T-cells, or a 2C+ T-cell bound to at least 3 latex beads. […]
# CD8^+ 2C cells [2] = assay: CD69 and CD25 expression on CD8+ 2C cells stimulated with transfected Drosophila cells plus peptide; format: cell-based, mouse; conditions: Drosophila cells expressing L^d alone; peptide 10 μM, 12 hours
# Method: TCR stimulation elicited a complex pattern of intracellular events which lead to early up-regulation of CD69 and CD25 (IL-2 receptor or IL-2R) on the cell surface. These changes are apparent within a few hours of stimulation and are followed by cytokine synthesis and cell proliferation. Drosophila cells were transfected with genes for L^d, L^d and B7.1 (L^d.B7), L^d and ICAM-1 (L^d.ICAM) or L^d, B7.1 and ICAM-1 (L^d.B7.1CAM). […] Purified CD8^+ 2C cells were incubated with various Drosophila cells plus a peptide (either p2Ca or QL9, 10 μM) in bulk (2 ml) culture for 12 hours and then stained for CD69 or CD25. Either p2Ca or QL9 presented by Drosophila cells transfected with L^d.B7, L^d.ICAM or L^d.B7.1CAM were effective in stimulating the up-regulation of CD69 and CD25.
# CD8^+ 2C cells [3] = assay: Dose-response of day 3 proliferation of CD8+ 2C cells to peptides on transfected Drosophila APC; format: cell-based, mouse; conditions: for proliferative response: 1 nM peptide
# Method: Responses to p2Ca (above) and QL9 (below) were measured by culturing 5×10^4 purified CD8^+ 2C cells with 2×10^5 Drosophila cells in the presence or absence of the indicated concentrations of peptides for 3 days. [^3H] TdR was added during the last 8 hours of culture; rIL-2 was added at a final concentration of 20 units/ml. The data are the mean of triplicate cultures. When supplemented with exogenous IL-2, however, both peptides stimulated significant proliferative responses at high doses (10 μM). The proliferative responses elicited by QL9 were far stronger than for p2Ca (note the large difference between the scales of x-axes of the upper and the lower panel).
# Dose-response relationships for proliferation on day 3 elicited by Drosophila cells transfected with L^d.B7.1CAM and presenting p2Ca peptide were compared to those elicited by Drosophila cells transfected with L^d.B7, L^d.ICAM or L^d.B7.1CAM presenting QL9 peptide. Drosophila APC (2×10^5 cells) were cultured with 5×10^4 CD8^+ 2C cells for three days in the presence or absence of peptides. [^3H] TdR was added during the last 8 hours of culture; no IL-2 was added to the cultures.
# 2C+ T-cells [4] = format: cell-based, mouse
# 2C+ T-cells [5] = assay: Enrichment of 2C+ T-cells from a 1/99 mixture with C57BL/6 CD8+ cells (1B2 staining, flow cytofluorometry); format: cell-based, mouse
# Method: 2C+ T-cells were mixed with total CD8^+ cells from C57BL/6 mice at a 1/99 ratio and cells were cultured with immobilized L^d and anti-CD28 antibody in the presence of peptide QL9. IL-2 was added at day 2 of culture, and subsequently every other day. Cell activation and proliferation was noted, as evidenced by the formation of clumps, presence of enlarged cells that progressively spread in the well. At day 12 of culture, cells were harvested and percentage of cells expressing the 2C T-cell receptor was assessed by staining with the anticlonotypic antibody 1B2 and analysis by flow cytofluorometry: 43% of the cells cultured initially in the presence of peptide QL9 were 2C+, (FIG. 22) whereas 49% of the cells expressed 2C after stimulation with peptide p2Ca (FIG. 23), and 22% with peptide SL9 (FIG. 24). […] Enrichment was observed even with SL9, a peptide that makes a low affinity complex with the 2C T-cell receptor. This method thus can specifically activate and enrich a small subpopulation of antigen specific T-cells out of a heterogenous mixture of T-cells.
# [6] = system: RMA.S cells (target cells) expressing L^d; format: cell-based, mouse
# soluble 2C TCR molecules = conditions: peptide complexed to L^d; association constant; cited from earlier work
substance,measurement,setting,value
Gln-Leu-Ser-Pro-Phe-Pro-Phe-Asp-Leu [QL9],lymphocytes included in rosettes,2C+ T-cells [1]; Drosophila S2 cells expressing L^d or L^d-coated SRBC,30-40%
same,lymphocytes included in rosettes,2C+ T-cells [1]; Drosophila S2 cells expressing L^d or L^d-coated latex beads,30-40%
same,induction of CD69 and CD25 expression,CD8^+ 2C cells [2],"low, but significant"
same,proliferative response,CD8^+ 2C cells [3]; L^d.B7 and L^d.ICAM APC,< 100 cpm
same,proliferative response,CD8^+ 2C cells [3]; L^d.B7.1CAM APC,"> 10,000 cpm"
same,effect of high peptide dose on day 3 proliferative response,"CD8^+ 2C cells [3]; 10 μM peptide, L^d.B7.1CAM APC",inhibited
same,proliferation of 2C CD8+ cells,"CD8^+ 2C cells [3]; Drosophila cells with L^d alone, no exogenous lymphokines",failed
same,lowest peptide dose with clearly apparent day 3 proliferative response,"CD8^+ 2C cells [3]; L^d.B7.1CAM APC, no IL-2",≤ 10 pM
same,peptide concentration giving maximal day 3 proliferative response,"CD8^+ 2C cells [3]; L^d.B7.1CAM APC, no IL-2",100 nM
same,thymidine incorporation,2C+ T-cells [4],"above 100,000 cpm per well"
same,enrichment in specific T-cells after 12 days,2C+ T-cells [5]; start 1/99,43 times
same,cells expressing the 2C T-cell receptor (2C+) at day 12,"2C+ T-cells [5]; start 1/99 2C+/total CD8+, immobilized L^d and anti-CD28, IL-2 from day 2",43%
same,lysis of target cells in the presence of peptide,[6],observed
same,affinity for 2C TCR molecules,soluble 2C TCR molecules,2e+07 M⁻¹
